Experimental data reported in patent US10682341B2, “Method for treating obesity, diabetes, cardiovascular and kidney diseases by regulating GPR30/GPER activity” (STC.UNM, priority 2015, dated 2020).
“Also recorded” adds a separate entry of the source.

Key:
3T3-L1 cells = assay: Lipid accumulation in 3T3-L1 adipocytes (Oil Red O staining); format: cell-based, mouse; conditions: 3T3-L1 murine adipocytes, G-1 during differentiation
Experimental: (§1) Mouse fibroblasts, NIH 3T3-L1 cells were grown in DMEM with 10% FBS and subcultured before reaching 70% confluence. For differentiation, cells were seeded in 24 well plates or 60 mm dishes and allowed to grow till confluent. Subsequently medium was changed and cells were kept for additional two days before adding the differentiation cocktail in the medium (0.5 mM isomethylbutylxanthine, 1 μM dexamethasone and 10 μg/mL insulin) for 3 days (with or without GPER selective agonist G-1). The medium was then changed to the regular DMEM with FBS as above.
(§2) Eight days after differentiation, adipocytes are briefly rinsed with PBS and fixed in 4% PFA for 30-60 min and washed with PBS. Freshly prepared Oil Red-O working solution was added to cells and incubated for ˜60 min at room temperature, washed t 3 times with PBS and air dried. Images were acquired or lipids extracted with isopropanol and absorbance at 520 nm to quantitate the lipids measured.

[1] = tested on: AMP-activated protein kinase (AMPK); assay: AMPK activation in differentiated murine adipocytes; format: cell-based, mouse
Experimental: as §1
Tissues were homogenized in RIPA buffer supplemented with sodium fluoride (50 mM), sodium orthovanadate (1 mM), phenylmethylsulfonylfluoride (1 mM), and protease cocktail. Protein amounts were quantified by Bradford method and equal amounts (30 μg) of protein were loaded for all the samples on 4-20% SDS-PAGE gel. Proteins were then transferred to polyvinylidene fluoride membrane, blocked with 3% newborn calf serum in TBST before overnight incubation with primary antibodies. Subsequently, blots were incubated with secondary HRP-conjugated antibodies and developed using SuperSignal West Pico Chemiluminescent Substrate. Blots were then scanned and quantified using ImageJ software.

high fat diet male mice = assay: Diet induced obesity (high fat diet) male mouse model; format: in vivo; conditions: HFD males
Text: (§3) For females, an ovariectomized female mouse model, with ovary-intact control animals, fed a regular chow diet, was employed. Loss of the ovaries results in the loss of endogenous estrogenic protection towards metabolic pathophysiology and weight gain, resulting in increased overall weight gain, abdominal adiposity and ensuing metabolic (including glucose and lipid) dysfunction in ovariectomized mice compared to ovary-intact control animals. For males, the model employed involves diet-induced obesity. In the absence of the estrogenic protection as in female mice, male mice fed a high fat chow gain weight and suffer from metabolic pathophysiology compared to mice on normal chow. […].
(§4) For measurement of food intake, activity and energy expenditure, mice were placed in metabolic cages. All measurements were obtained using a computer-controlled indirect calorimetry system. Prior to data collection, mice were acclimatized in the chambers for 24 hours, after which data was collected for the subsequent 48 hours, including two complete light cycles (14 h) and two complete dark cycles (10 h). Oxygen consumption (VO2), carbon dioxide production (VCO2), activity and food consumption were measured for 48 hours. The animals had ad libitum access to standard rodent chow or high fat chow and water during the study. To detect ambulatory activity and position, beam breaks in all the three planes, X, Y and Z directions, were utilized to obtain total activity. To calculate oxygen consumption (VO2) and carbon dioxide production (VCO2) were assessed by measuring the gas concentrations at the inlet and outlet of the sealed chambers.
(§5) Post euthanasia, tissues (epididymal/perirenal fat, liver) were dissected and weighed. Tibia length was measured after clearing of soft tissue. For H&E staining, at sacrifice, tissues were fixed in buffered formalin for 24 hours and subsequently embedded in paraffin. Tissue sections (5 μm-thick) were stained with Hematoxylin and Eosin.
(§6) Prior to GTT and ITT, mice were fasted for 4 hours and basal glucose (0 min) was measured. Subsequently, mice were intraperitoneally injected with glucose (2 g/kg body weight) or insulin (0.5 U/kg body weight). After the injection, blood glucose was monitored at regular time intervals (15, 30, 60 and 120 min after injection) from tail nicks. Additionally, for measuring the fasting insulin, blood was collected from the tail nicks at 0 time point and plasma was separated and used for measuring the fasting insulin using a mouse Insulin ELISA kit. Blood glucose was monitored using a glucose meter.

PPARγ and ap2 = assay: Expression of adipogenic markers in 3T3-L1 cells; format: cell-based, mouse; conditions: 3T3-L1 cells differentiated in the presence of G-1
Experimental: as §1
(§7) Total RNA was extracted from frozen tissues (˜100 mg) or cultured cells using the RNeasy Mini Kit. Isolated RNA (˜100 ng) was used for cDNA synthesis using the ImProm-II™ Reverse Transcription System in a final reaction volume of 20 μL in a denaturation and extension cycle. Subsequently, quantitative real time PCR was carried out in a 7500 Fast Real-Time PCR System. Gene expression was normalized to 18S RNA as an internal reference and fold change over the control was calculated using the ddCt method. Quantitative real-time PCR analyses were performed in triplicate from a minimum of 5 separate animals.

C2C12 cells = assay: Glucose uptake in differentiated C2C12 myocytes; format: cell-based, mouse
Experimental: (§8) For human adipocytic differentiation, human preadipocytes were purchased from Zen-Bio and differentiated with or without GPER-selective agonist G-1. Mouse myoblasts, C2C12 were grown in low glucose DMEM with 10% FBS and subcultured before reaching 70-80% confluence. For differentiation into myocytes, cells were seeded on 12-well plates and at confluence were switched to DMEM containing 2% horse serum. The medium was changed every other day and cells were used for glucose uptake assay between 6-8 days post differentiation.
Differentiated C2C12 cells were washed twice with Krebs-Ringer phosphate buffer and incubated in serum free low glucose DMEM for 3 hours. Cells were then treated with 100 nM insulin for 15 min and subsequently incubated in Krebs-Ringer phosphate buffer containing […] of 2-deoxy-d-[^3H]glucose for 20 min. The reaction was terminated by adding ice-cold PBS on plates on ice. After three washes with PBS, the cells were dissolved in 0.1% sodium dodecyl sulfate and radioactivity was quantified by liquid scintillation counting. Nonspecific deoxyglucose uptake was measured in the presence of […] cytochalasin B and was subtracted from the total uptake to get specific glucose uptake.

human adipocytes = assay: Lipid accumulation in human adipocytes (Oil Red O staining); format: cell-based; conditions: G-1 during differentiation
Experimental: as §8, §2

[2] = tested on: differentiated murine adipocytes; assay: Mitochondrial biogenesis in differentiated murine adipocytes; format: cell-based, mouse
Experimental: as §1

[3] = tested on: ovariectomized female mice; assay: Ovariectomized female mouse model of obesity and diabetes; format: in vivo; conditions: OVX females
Text: as §3, §4, §5, §6, §7

In the case of `CC(=O)c1ccc2c(c1)C1C=CCC1C(c1cc3c(cc1Br)OCO3)N2` (centres unmarked) [G-1], the lipid accumulation (3T3-L1 cells) was “decreased lipid accumulation; also recorded: inhibits lipid accumulation”, the AMPK activation [1] was “activated AMP-activated protein kinase (AMPK); also recorded: activates AMPK” and the fasting glucose levels (high fat diet male mice) was “lower fasting glucose levels; also recorded: decreases fasting blood glucose”. For the same compound, the “glucose tolerance (glucose tolerance test)” value (high fat diet male mice) was “improves glucose tolerance”, the “insulin sensitivity (insulin tolerance test)” value (high fat diet male mice) was “improved insulin sensitivity; also recorded: enhances insulin sensitivity” and the total body weight (high fat diet male mice; G-1 200 μg, 5 days per week, subcutaneously for 8 weeks vs vehicle) was “attenuates weight gain; also recorded: decrease in the total body weight”. The liver weights (high fat diet male mice; after 8 week treatment) was “significant decrease in liver weights; also recorded: lower”, the “perirenal adipose fat pad weights” value (high fat diet male mice; after 8 week treatment) was “significant decrease; also recorded: lower” and the “energy expenditure (O2 consumption)” value (high fat diet male mice; metabolic cages) was “increase in O2 consumption; also recorded: increased energy expenditure”. For the same compound, the “expression of adipogenic markers PPARγ and ap2” value (PPARγ and ap2) was “lower levels of adipogenic markers; also recorded: down regulates”, the “cellular uptake of glucose” value (C2C12 cells) was “increased the cellular uptake of glucose; also recorded: increases glucose uptake” and the lipid accumulation (human adipocytes) was “decreased lipid accumulation; also recorded: inhibits lipid accumulation”. The mitochondrial biogenesis [2] was “increased the mitochondrial biogenesis; also recorded: increases mitochondrial biogenesis”, the “adipocyte size in perigonadal fat (H&E staining)” value [3] was “smaller adipocytes” and the “antioxidant markers in muscle and liver” value [3] was “increases antioxidant markers”. For the same compound, the fasting glucose levels [3] was “lower fasting glucose levels; also recorded: decreases fasting blood glucose”, the “glucose tolerance (glucose tolerance test)” value [3] was “improves glucose tolerance” and the “insulin sensitivity (insulin tolerance test)” value [3] was “enhances insulin sensitivity”. The total body weight ([3]; G-1 200 μg, 3 days per week, subcutaneously for 6 weeks vs vehicle) was “attenuates weight gain; also recorded: decrease in the total body weight”, the “weights of perigonadal fat pads” value ([3]; after 6 week treatment) was “decreased weights of perigonadal fat pads; also recorded: lower” and the “mRNA levels of pro-inflammatory, angiogenic and lipogenic markers in adipose tissue” value ([3]; gonadal fat, quantitative PCR) was “lower; also recorded: reduces inflammatory, angiogenic and lipogenic markers”. The “energy expenditure (O2 consumption)” value ([3]; metabolic cages) was “increase in O2 consumption; also recorded: increased energy expenditure” and the “pro-inflammatory and lipogenic markers in skeletal muscle and liver” value ([3]; quantitative PCR) was “decreased pro-inflammatory and lipogenic markers; also recorded: reduces lipogenic and inflammation”.
